We go through five compounds from PMC11062922 (Nature Chemical Biology, 2023).

Test [1] concerns HSPE1. The experiment in a line: Kinobeads competition binding: HSPE1. The arrangement: species or system human. The settings on record: target HSPE1.
For test [2], the target named is T1, FER (Homo sapiens, UniProt P16591).
T1 construct: endogenous in cells
As to the kind of experiment: Kinobeads competition binding: FER. The settings on record: target FER. From the text: Supplement 41589_2023_1459_MOESM4_ESM.xlsx, sheet "CATDS matrix" | column: FER

The target in test [3] is T2, CDK5 (Homo sapiens, UniProt Q00535).
T2 construct: endogenous in cells
The experiment in a line: Kinobeads competition binding: CDK5. Conditions: target CDK5.

In test [4] the test system is MAPK9. The experiment in a line: Kinobeads competition binding: MAPK9. The arrangement: species or system human. The settings on record: target MAPK9.
Test [5] deals with NEK2. The experiment in a line: Kinobeads competition binding: NEK2. Also noted: species or system human. The settings on record: target NEK2.
Test [6] concerns AIFM1. The experiment in a line: Kinobeads competition binding: AIFM1. Also noted: species or system human. Conditions: target AIFM1.
Test [7] deals with T3, EPHB2 (Homo sapiens, UniProt P29323).
T3 construct: endogenous in cells
T3 sequence (P29323 19-1055): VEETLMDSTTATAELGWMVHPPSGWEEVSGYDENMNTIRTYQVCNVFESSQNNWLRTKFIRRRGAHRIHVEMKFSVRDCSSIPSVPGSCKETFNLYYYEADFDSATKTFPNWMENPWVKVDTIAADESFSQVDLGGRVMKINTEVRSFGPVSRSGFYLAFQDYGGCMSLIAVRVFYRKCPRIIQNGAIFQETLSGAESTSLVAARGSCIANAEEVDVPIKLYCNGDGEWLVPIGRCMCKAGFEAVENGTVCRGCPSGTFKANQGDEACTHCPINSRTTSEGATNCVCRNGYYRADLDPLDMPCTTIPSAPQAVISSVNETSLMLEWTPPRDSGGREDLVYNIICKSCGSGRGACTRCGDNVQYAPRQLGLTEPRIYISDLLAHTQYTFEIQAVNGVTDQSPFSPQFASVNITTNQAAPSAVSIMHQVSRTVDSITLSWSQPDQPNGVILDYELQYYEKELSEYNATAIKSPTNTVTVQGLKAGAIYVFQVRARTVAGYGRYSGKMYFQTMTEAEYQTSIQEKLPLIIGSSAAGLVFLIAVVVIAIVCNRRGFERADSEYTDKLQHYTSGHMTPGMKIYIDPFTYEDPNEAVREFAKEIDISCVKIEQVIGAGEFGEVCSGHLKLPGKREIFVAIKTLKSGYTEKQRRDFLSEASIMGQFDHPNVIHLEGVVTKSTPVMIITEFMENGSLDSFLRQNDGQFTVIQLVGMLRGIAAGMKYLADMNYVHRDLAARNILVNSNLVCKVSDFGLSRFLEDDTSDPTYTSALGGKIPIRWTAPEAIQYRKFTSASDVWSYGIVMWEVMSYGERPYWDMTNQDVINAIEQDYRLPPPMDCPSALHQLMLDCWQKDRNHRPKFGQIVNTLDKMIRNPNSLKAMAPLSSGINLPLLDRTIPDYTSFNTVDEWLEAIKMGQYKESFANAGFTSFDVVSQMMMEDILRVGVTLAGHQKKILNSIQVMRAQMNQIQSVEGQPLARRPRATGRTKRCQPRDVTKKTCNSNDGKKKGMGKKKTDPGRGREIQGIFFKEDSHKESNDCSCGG
The experiment in a line: Kinobeads competition binding: EPHB2.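 Also: target engagement share of this target among all targets at its Kdapp concentration.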 The settings on record: target EPHB2. The source says:
Supplement 41589_2023_1459_MOESM4_ESM.xlsx, sheet "CATDS matrix" | column: EPHB2

For test [8], the system named is ERCC2. The experiment in a line: Kinobeads competition binding: ERCC2. Also noted: species or system human. The settings on record: target ERCC2.
Test [9] concerns the target T4, PIM3 (Homo sapiens, UniProt Q86V86).
T4 construct: a mixture of lysates from five cancer cell lines; endogenous in cells
As to the kind of experiment: Kinobeads competition binding: PIM3. The settings on record: target PIM3. From the text:
Supplement 41589_2023_1459_MOESM4_ESM.xlsx, sheet "CATDS matrix" | column: PIM3

Test [10] deals with T5, PIP4K2C (Homo sapiens, UniProt Q8TBX8).
T5 construct: a mixture of lysates from five cancer cell lines; endogenous in cells
T5 sequence (Q8TBX8 1-421): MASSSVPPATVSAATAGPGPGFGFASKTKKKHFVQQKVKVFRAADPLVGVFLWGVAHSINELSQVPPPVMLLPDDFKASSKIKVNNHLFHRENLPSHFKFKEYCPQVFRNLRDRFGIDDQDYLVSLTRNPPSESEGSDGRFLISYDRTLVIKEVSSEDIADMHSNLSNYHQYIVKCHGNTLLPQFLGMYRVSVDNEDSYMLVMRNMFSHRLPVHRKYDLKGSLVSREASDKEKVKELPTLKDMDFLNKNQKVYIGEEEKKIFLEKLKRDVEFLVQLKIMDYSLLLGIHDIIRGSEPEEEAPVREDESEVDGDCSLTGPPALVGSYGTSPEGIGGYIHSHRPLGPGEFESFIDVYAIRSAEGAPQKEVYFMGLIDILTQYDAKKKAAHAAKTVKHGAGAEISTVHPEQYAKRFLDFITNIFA
As to the kind of experiment: Kinobeads competition binding: PIP4K2C. Conditions: target PIP4K2C. From the text: Supplement 41589_2023_1459_MOESM4_ESM.xlsx, sheet "CATDS matrix" | column: PIP4K2C

In test [11] the target is T6, IKBKE (Homo sapiens, UniProt Q14164).
T6 construct: endogenous in cells
T6 sequence (Q14164 1-716): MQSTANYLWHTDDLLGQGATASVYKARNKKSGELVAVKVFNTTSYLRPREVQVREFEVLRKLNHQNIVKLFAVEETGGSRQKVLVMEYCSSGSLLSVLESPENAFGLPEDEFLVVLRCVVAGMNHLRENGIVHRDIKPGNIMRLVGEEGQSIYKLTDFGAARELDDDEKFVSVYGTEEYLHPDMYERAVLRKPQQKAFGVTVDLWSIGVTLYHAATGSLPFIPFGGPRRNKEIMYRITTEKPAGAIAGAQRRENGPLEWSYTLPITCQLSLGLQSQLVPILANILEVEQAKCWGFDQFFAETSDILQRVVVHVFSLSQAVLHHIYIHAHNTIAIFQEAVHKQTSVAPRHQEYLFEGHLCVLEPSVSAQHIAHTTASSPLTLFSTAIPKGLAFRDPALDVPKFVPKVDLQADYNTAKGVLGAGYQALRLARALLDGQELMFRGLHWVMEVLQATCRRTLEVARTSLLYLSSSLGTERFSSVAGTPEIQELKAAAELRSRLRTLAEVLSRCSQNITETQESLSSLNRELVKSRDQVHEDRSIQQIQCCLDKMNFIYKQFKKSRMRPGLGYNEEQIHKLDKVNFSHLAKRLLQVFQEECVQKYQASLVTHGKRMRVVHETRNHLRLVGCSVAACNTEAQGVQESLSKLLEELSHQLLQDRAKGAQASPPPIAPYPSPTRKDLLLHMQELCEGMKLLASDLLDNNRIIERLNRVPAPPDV
As to the kind of experiment: Kinobeads competition binding: IKBKE. Conditions: target IKBKE.

For test [12], the system named is LIMK1. As to the kind of experiment: Kinobeads competition binding: LIMK1. The settings on record: target LIMK1. Also noted: species or system human.

T2 sequence (Q00535 whole entry): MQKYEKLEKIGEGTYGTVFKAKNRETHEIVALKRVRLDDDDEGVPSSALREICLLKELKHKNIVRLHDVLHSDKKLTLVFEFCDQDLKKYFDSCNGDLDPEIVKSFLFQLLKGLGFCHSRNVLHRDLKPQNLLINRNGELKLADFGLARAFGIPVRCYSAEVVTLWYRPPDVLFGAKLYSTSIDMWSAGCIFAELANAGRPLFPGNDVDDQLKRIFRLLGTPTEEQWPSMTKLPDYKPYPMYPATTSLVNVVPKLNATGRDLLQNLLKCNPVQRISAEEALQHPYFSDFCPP
T1 sequence (P16591 whole entry): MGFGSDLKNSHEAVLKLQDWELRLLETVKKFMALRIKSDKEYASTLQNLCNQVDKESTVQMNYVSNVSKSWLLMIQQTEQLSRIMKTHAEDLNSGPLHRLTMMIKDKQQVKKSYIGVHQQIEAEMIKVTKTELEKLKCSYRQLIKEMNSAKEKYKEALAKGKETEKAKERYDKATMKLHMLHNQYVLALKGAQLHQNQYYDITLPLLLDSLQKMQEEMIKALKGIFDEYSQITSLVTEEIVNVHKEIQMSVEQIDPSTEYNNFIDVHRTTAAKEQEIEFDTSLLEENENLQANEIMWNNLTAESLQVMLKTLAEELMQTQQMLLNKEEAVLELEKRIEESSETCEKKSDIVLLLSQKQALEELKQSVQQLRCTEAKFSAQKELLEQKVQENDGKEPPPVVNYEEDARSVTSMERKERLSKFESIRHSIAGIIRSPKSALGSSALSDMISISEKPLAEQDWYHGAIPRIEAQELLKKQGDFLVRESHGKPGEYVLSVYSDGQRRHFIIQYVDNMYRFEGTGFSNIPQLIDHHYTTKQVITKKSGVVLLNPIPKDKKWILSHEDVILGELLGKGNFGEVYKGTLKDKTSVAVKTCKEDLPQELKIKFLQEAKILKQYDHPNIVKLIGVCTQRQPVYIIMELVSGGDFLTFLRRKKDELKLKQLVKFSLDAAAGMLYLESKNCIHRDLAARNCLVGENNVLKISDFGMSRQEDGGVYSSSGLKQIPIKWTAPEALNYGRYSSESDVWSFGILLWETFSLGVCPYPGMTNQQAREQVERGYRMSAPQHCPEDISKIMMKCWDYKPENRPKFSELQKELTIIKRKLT

Turning to `Nc1ncnc2[nH]c(-c3ccccc3)nc12` [AH5015_KCGS], the CATDS was 0 in test [1]; 0.03222 in [2]; 0 in test [3]; 0 in [4]; 0 in [5]; 0 in test [6]. Further, the CATDS in test [7] came to 0.02863; in [8], 0.1122; in [9], 0; in test [10], 0; in test [11], 0; in [12], 0.
Turning to `CCN1CCN(Cc2ccc(Nc3ncc(F)c(-c4cc(F)c5nc(C)n(C(C)C)c5c4)n3)nc2)CC1` [Abemaciclib], the CATDS in [1], in [2], in test [3], in test [4], in test [5] and in test [6] was 0 in each case. Also, the CATDS in [7], in test [8], in test [9], in test [10], in test [11] and in [12] was 0 each time.
With `CN(C)C/C=C/C(=O)Nc1cc2c(Nc3ccc(F)c(Cl)c3)ncnc2cc1O[C@H]1CCOC1` [Afatinib], the CATDS in [1], in test [2], in test [6], in [7], in test [8] and in test [9] was 0 throughout. In [10], this compound gave a CATDS of 0.
With `CCc1cc2c(cc1N1CCC(N3CCOCC3)CC1)C(C)(C)c1[nH]c3cc(C#N)ccc3c1C2=O` [Alectinib], the CATDS in [1], in test [2], in test [3], in test [4], in [5] and in [6] was 0 each time. The CATDS in [7], in test [8], in [9], in test [10], in [11] and in test [12] was 0 in each case.
Take `N#CC1(c2ccc(NC(=O)c3cccnc3NCc3ccncc3)cc2)CCCC1` [Apatinib]: the CATDS in test [1], in test [2], in test [3], in test [4], in test [5] and in test [6] was 0 each time. Moreover, the CATDS in [7], in [8], in test [9], in [10], in [11] and in test [12] was 0 throughout.
